According to ChEMBL document CHEMBL3885881, “DrugMatrix”:

Species: Rattus norvegicus
Assay: DrugMatrix - Regimen: Daily Repeat
Assay type: toxicity, organism-based, Sprague-Dawley
Set-up: regimen Daily Repeat, gender Male, age 6-8 weeks
Conditions: in vivo, sc, 0 mg/kg, route mini-PUMP - SUBCUTANEOUS, dose level Control, vehicle 100 % SALINE; for ABSOLUTE BASOPHIL / ABSOLUTE EOSINOPHIL / ABSOLUTE LYMPHOCYTE / ABSOLUTE MONOCYTE / ABSOLUTE SEGMENTED NEUTROPHIL / BASOPHIL / EOSINOPHIL / ERYTHROCYTE COUNT / HEMATOCRIT / HEMOGLOBIN / LEUKOCYTE COUNT / LYMPHOCYTE / MEAN CORPUSCULAR HEMOGLOBIN / MEAN CORPUSCULAR HEMOGLOBIN CONCENTRATION / MEAN CORPUSCULAR VOLUME / MONOCYTE / NEUTROPHIL / NUCLEATED RED BLOOD CELLS / PLATELET COUNT: tissue Blood; for ALANINE AMINOTRANSFERASE / ALBUMIN / ALKALINE PHOSPHATASE / ASPARTATE AMINOTRANSFERASE / BLOOD UREA NITROGEN / CARBON DIOXIDE / CHLORIDE / CHOLESTEROL / CREATININE / GLUCOSE / LACTATE DEHYDROGENASE / LIPASE / PHOSPHORUS / POTASSIUM / SODIUM / TOTAL BILIRUBIN / TOTAL PROTEIN / URIC ACID: tissue Plasma

NC[C@H](O)c1ccc(O)c(O)c1 [NOREPINEPHRINE]
ABSOLUTE BASOPHIL (72 h, time 3 day): 0 CELLS/uL | ABSOLUTE EOSINOPHIL (72 h, time 3 day): 77.17 CELLS/uL | ABSOLUTE LYMPHOCYTE (72 h, time 3 day): 14293.83 CELLS/uL | ABSOLUTE MONOCYTE (72 h, time 3 day): 354 CELLS/uL | ABSOLUTE SEGMENTED NEUTROPHIL (72 h, time 3 day): 1658.33 CELLS/uL | BASOPHIL (72 h, time 3 day): 0% | EOSINOPHIL (72 h, time 3 day): 0.5% | ERYTHROCYTE COUNT (72 h, time 3 day): 6.27 x10E6/uL | HEMATOCRIT (72 h, time 3 day): 36.95% | HEMOGLOBIN (72 h, time 3 day): 13.4 G/DL | LEUKOCYTE COUNT (72 h, time 3 day): 16.38 x10E3/uL | LYMPHOCYTE (72 h, time 3 day): 87.17% | MEAN CORPUSCULAR HEMOGLOBIN (72 h, time 3 day): 21.42 pg | MEAN CORPUSCULAR HEMOGLOBIN CONCENTRATION (72 h, time 3 day): 36.27 G/DL | MEAN CORPUSCULAR VOLUME (72 h, time 3 day): 59.03 fL | MONOCYTE (72 h, time 3 day): 2% | NEUTROPHIL (72 h, time 3 day): 10.33% | NUCLEATED RED BLOOD CELLS (72 h, time 3 day): 0 /100WBC | PLATELET COUNT (72 h, time 3 day): 904.67 x10E3/uL | ALANINE AMINOTRANSFERASE (72 h, time 3 day): 48.33 u/L | ALBUMIN (72 h, time 3 day): 3.82 G/DL | ALKALINE PHOSPHATASE (72 h, time 3 day): 282.33 u/L | ASPARTATE AMINOTRANSFERASE (72 h, time 3 day): 86.83 u/L | BLOOD UREA NITROGEN (72 h, time 3 day): 20.17 mg/dL | CARBON DIOXIDE (72 h, time 3 day): 34.67 mmol/L | CHLORIDE (72 h, time 3 day): 102 MEQ/L | CHOLESTEROL (72 h, time 3 day): 71.5 mg/dL | CREATININE (72 h, time 3 day): 0.2 mg/dL | GLUCOSE (72 h, time 3 day): 136.83 mg/dL | LACTATE DEHYDROGENASE (72 h, time 3 day): 159 u/L | LIPASE (72 h, time 3 day): 9 u/L | PHOSPHORUS (72 h, time 3 day): 10.12 mg/dL | POTASSIUM (72 h, time 3 day): 5.92 MEQ/L | SODIUM (72 h, time 3 day): 147.8 MEQ/L | TOTAL BILIRUBIN (72 h, time 3 day): 0.2 mg/dL | TOTAL PROTEIN (72 h, time 3 day): 6.05 G/DL | URIC ACID (72 h, time 3 day): 1.4 mg/dL | ABSOLUTE BASOPHIL (120 h, time 5 day): 0 CELLS/uL | ABSOLUTE EOSINOPHIL (120 h, time 5 day): 0 CELLS/uL | ABSOLUTE LYMPHOCYTE (120 h, time 5 day): 14257.33 CELLS/uL | ABSOLUTE MONOCYTE (120 h, time 5 day): 326 CELLS/uL | ABSOLUTE SEGMENTED NEUTROPHIL (120 h, time 5 day): 3216.67 CELLS/uL | BASOPHIL (120 h, time 5 day): 0% | EOSINOPHIL (120 h, time 5 day): 0% | ERYTHROCYTE COUNT (120 h, time 5 day): 6.11 x10E6/uL | HEMATOCRIT (120 h, time 5 day): 36.22% | HEMOGLOBIN (120 h, time 5 day): 13.18 G/DL | LEUKOCYTE COUNT (120 h, time 5 day): 17.8 x10E3/uL | LYMPHOCYTE (120 h, time 5 day): 80.5% | MEAN CORPUSCULAR HEMOGLOBIN (120 h, time 5 day): 21.62 pg | MEAN CORPUSCULAR HEMOGLOBIN CONCENTRATION (120 h, time 5 day): 36.42 G/DL | MEAN CORPUSCULAR VOLUME (120 h, time 5 day): 59.37 fL | MONOCYTE (120 h, time 5 day): 1.83% | NEUTROPHIL (120 h, time 5 day): 17.67% | NUCLEATED RED BLOOD CELLS (120 h, time 5 day): 0 /100WBC | PLATELET COUNT (120 h, time 5 day): 1311 x10E3/uL | ALANINE AMINOTRANSFERASE (120 h, time 5 day): 47 u/L | ALBUMIN (120 h, time 5 day): 3.83 G/DL | ALKALINE PHOSPHATASE (120 h, time 5 day): 260.33 u/L | ASPARTATE AMINOTRANSFERASE (120 h, time 5 day): 76.17 u/L | BLOOD UREA NITROGEN (120 h, time 5 day): 14.67 mg/dL | CARBON DIOXIDE (120 h, time 5 day): 31.33 mmol/L | CHLORIDE (120 h, time 5 day): 101.17 MEQ/L | CHOLESTEROL (120 h, time 5 day): 75 mg/dL | CREATININE (120 h, time 5 day): 0.16 mg/dL | GLUCOSE (120 h, time 5 day): 152.67 mg/dL | LACTATE DEHYDROGENASE (120 h, time 5 day): 147.33 u/L | LIPASE (120 h, time 5 day): 9.33 u/L | PHOSPHORUS (120 h, time 5 day): 10.97 mg/dL | POTASSIUM (120 h, time 5 day): 6 MEQ/L | SODIUM (120 h, time 5 day): 145.52 MEQ/L | TOTAL BILIRUBIN (120 h, time 5 day): 0.17 mg/dL | TOTAL PROTEIN (120 h, time 5 day): 5.83 G/DL | URIC ACID (120 h, time 5 day): 1.27 mg/dL | ABSOLUTE BASOPHIL ([…], time 14 day): 0 CELLS/uL | ABSOLUTE EOSINOPHIL ([…], time 14 day): 64.5 CELLS/uL | ABSOLUTE LYMPHOCYTE ([…], time 14 day): 12507.83 CELLS/uL | ABSOLUTE MONOCYTE ([…], time 14 day): 380.33 CELLS/uL | ABSOLUTE SEGMENTED NEUTROPHIL ([…], time 14 day): 2414 CELLS/uL | BASOPHIL ([…], time 14 day): 0% | EOSINOPHIL ([…], time 14 day): 0.5% | ERYTHROCYTE COUNT ([…], time 14 day): 6.1 x10E6/uL | HEMATOCRIT ([…], time 14 day): 35.4% | HEMOGLOBIN ([…], time 14 day): 12.88 G/DL | LEUKOCYTE COUNT ([…], time 14 day): 15.37 x10E3/uL | LYMPHOCYTE ([…], time 14 day): 80.83% | MEAN CORPUSCULAR HEMOGLOBIN ([…], time 14 day): 21.18 pg | MEAN CORPUSCULAR HEMOGLOBIN CONCENTRATION ([…], time 14 day): 36.43 G/DL | MEAN CORPUSCULAR VOLUME ([…], time 14 day): 58.17 fL | MONOCYTE ([…], time 14 day): 2.17% | NEUTROPHIL ([…], time 14 day): 16.5% | NUCLEATED RED BLOOD CELLS ([…], time 14 day): 0.17 /100WBC | PLATELET COUNT ([…], time 14 day): 1016 x10E3/uL | ALANINE AMINOTRANSFERASE ([…], time 14 day): 53.33 u/L | ALBUMIN ([…], time 14 day): 3.93 G/DL | ALKALINE PHOSPHATASE ([…], time 14 day): 319.83 u/L | ASPARTATE AMINOTRANSFERASE ([…], time 14 day): 84 u/L | BLOOD UREA NITROGEN ([…], time 14 day): 15.5 mg/dL | CARBON DIOXIDE ([…], time 14 day): 34 mmol/L | CHLORIDE ([…], time 14 day): 101.83 MEQ/L | CHOLESTEROL ([…], time 14 day): 57 mg/dL | CREATININE ([…], time 14 day): 0.21 mg/dL | GLUCOSE ([…], time 14 day): 182.33 mg/dL | LACTATE DEHYDROGENASE ([…], time 14 day): 104.67 u/L | LIPASE ([…], time 14 day): 9.17 u/L | PHOSPHORUS ([…], time 14 day): 11.12 mg/dL | POTASSIUM ([…], time 14 day): 5.81 MEQ/L | SODIUM ([…], time 14 day): 144.85 MEQ/L | TOTAL BILIRUBIN ([…], time 14 day): 0.18 mg/dL | TOTAL PROTEIN ([…], time 14 day): 5.92 G/DL | URIC ACID ([…], time 14 day): 1.38 mg/dL
